Reference: US7528138B2, “Pyrazolo[1,5-a]pyrimidines useful as inhibitors of protein kinases” (Vertex Pharmaceuticals Incorporated, priority 2004, dated 2009)

Legend:
Itk = target: T1, Itk (Homo sapiens, UniProt Q08881); assay: ITK Inhibition Assay (Radiometric), radioactive-phosphate incorporation; format: biochemical; conditions: enzyme inhibition data (Ki), Table 11; radiometric or UV assay not stated
T1 sequence (Q08881 1-620): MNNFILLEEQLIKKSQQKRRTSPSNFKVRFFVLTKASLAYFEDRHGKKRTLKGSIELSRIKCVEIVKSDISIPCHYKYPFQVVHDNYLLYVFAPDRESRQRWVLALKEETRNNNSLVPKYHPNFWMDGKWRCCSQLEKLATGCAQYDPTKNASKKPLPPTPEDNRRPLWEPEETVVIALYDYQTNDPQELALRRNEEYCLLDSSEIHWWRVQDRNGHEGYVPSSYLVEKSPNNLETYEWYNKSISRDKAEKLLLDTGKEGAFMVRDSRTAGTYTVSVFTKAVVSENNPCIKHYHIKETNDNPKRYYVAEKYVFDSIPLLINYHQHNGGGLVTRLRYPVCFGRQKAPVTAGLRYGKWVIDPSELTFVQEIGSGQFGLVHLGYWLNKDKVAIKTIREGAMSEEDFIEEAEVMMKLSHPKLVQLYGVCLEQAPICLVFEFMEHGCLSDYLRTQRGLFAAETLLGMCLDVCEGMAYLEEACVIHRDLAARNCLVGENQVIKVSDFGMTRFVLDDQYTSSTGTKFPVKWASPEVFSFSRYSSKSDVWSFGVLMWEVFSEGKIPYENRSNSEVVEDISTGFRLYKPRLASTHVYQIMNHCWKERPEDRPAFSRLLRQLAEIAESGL
Method in brief: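 Radiometric 33P incorporation into SAM68 peptide (D332-443) with filter capture and scintillation counting; 10 min pre-incubation then 10 min reaction at 25° C. IC50 format: 30 nM Itk, 15 μM ATP, 2 μM peptide, HEPES pH 7.5. Ki(app) format: 50 nM Itk, 7.5 μM ATP, 3 μM peptide, MOPS pH 7.0.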

c-Met = c-Met (Homo sapiens, UniProt P08581); assay: c-Met Inhibition Assay, coupled enzyme system; format: biochemical; conditions: enzyme inhibition data (Ki), Table 11
Method in brief: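 Pyruvate kinase/lactate dehydrogenase-coupled NADH assay in HEPES pH 7.5 with 80 nM c-Met, 200 μM ATP and 10 μM polyGluTyr at 30° C. Compound (0.006–12.5 μM final, 12-point) preincubated 10 min before ATP start; rates over 10 min gave Ki.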

Chain of c-Met (P08581 25-1390): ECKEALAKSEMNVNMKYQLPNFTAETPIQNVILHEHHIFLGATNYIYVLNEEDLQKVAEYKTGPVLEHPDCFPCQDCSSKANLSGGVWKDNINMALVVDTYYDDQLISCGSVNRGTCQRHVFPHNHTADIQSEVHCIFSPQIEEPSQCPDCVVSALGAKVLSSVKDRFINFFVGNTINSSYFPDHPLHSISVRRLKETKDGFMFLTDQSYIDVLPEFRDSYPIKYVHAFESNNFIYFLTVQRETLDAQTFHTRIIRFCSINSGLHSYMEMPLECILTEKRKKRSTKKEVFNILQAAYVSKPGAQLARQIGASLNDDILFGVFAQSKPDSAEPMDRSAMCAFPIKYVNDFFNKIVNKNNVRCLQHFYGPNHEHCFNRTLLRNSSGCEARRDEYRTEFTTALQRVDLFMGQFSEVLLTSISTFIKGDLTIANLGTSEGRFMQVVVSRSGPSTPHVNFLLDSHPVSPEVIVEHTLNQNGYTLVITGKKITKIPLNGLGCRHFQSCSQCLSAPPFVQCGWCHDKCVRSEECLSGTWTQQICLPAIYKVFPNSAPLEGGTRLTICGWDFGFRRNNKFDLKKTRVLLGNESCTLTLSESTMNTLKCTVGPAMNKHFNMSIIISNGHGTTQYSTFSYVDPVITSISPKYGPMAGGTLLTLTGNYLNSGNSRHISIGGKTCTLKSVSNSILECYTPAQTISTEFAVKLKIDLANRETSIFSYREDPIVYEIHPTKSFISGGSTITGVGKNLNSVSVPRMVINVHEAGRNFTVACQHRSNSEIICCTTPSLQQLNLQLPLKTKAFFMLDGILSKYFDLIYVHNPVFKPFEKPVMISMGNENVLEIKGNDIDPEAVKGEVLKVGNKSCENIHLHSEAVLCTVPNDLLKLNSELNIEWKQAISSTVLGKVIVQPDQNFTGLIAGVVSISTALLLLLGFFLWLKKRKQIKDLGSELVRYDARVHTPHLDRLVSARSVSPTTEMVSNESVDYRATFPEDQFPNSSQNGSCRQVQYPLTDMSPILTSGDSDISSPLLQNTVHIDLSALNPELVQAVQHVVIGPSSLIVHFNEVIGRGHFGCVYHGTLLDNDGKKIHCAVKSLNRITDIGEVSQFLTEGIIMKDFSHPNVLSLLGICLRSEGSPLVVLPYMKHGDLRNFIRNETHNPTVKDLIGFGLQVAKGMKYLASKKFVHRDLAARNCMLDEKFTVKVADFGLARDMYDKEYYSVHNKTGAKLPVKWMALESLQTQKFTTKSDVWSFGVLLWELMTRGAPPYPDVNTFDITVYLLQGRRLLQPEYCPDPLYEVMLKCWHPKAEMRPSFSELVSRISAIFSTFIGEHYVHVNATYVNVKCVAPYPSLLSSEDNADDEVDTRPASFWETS

Row | Ki (Itk) [nM] | Ki (c-Met) [nM] | SMILES
1 | < 500 | < 500 | NC1NN2C=C(c3cccc(CN4CCCNCC4)c3)C=NC2=C1c1ccccn1 (stereo not drawn) [Compound V-228]
2 | 500 to 5000 | < 500 | Nc1nn2cc(-c3cccc(C(=O)N4CCCC4CO)n3)cnc2c1-c1ccccn1 (stereo not drawn) [Compound V-112]
3 | < 500 | < 500 | NCc1cccc(-c2cnc3c(-c4ccccn4)c(N)nn3c2)c1 [Compound V-202]
4 | < 500 | < 500 | CC(C)CN(C)c1cc(-c2c(N)nn3cc(-c4ccncc4)cnc23)ncn1 [Compound V-243]
5 | < 500 | < 500 | CN(C)Cc1cccc(-c2cnc3c(-c4ccccn4)c(N)nn3c2)c1 [Compound V-215]
6 | < 500 | < 500 | CC(C)CNc1cc(-c2c(N)nn3cc(-c4ccncc4)cnc23)ncn1 [Compound V-185]
7 | 500 to 5000 | < 500 | Nc1nn2cc(C#CCO)cnc2c1-c1ccccn1 [Compound V-238]
8 | < 500 | < 500 | Nc1nn2cc(-c3ccc(N4CCC(N)CC4)nc3)cnc2c1-c1ccccn1 [Compound V-165]
9 | < 500 | < 500 | COc1ccccc1Nc1cc(-c2c(N)nn3cc(-c4ccncc4)cnc23)ncn1 [Compound V-242]
10 | < 500 | < 500 | CC(C)Nc1cc(-c2c(N)nn3cc(-c4ccncc4)cnc23)ncn1 [Compound V-182]
11 | < 500 | < 500 | Nc1nn2cc(-c3ccc(CN4CCC(N)CC4)cc3)cnc2c1-c1ccccn1 [Compound V-234]
12 | < 500 | < 500 | Nc1nn2cc(-c3ccc(C(=O)N4CCC[C@H]4CN4CCCC4)cn3)cnc2c1-c1ccccn1 [Compound V-177]
13 | < 500 | < 500 | CNCCN(C)C(=O)c1cccc(-c2cnc3c(-c4ccccn4)c(N)nn3c2)c1 [Compound V-189]
14 | < 500 | < 500 | CCN1CCN(c2ccc(-c3cnc4c(-c5ccccn5)c(N)nn4c3)cn2)CC1 [Compound V-166]
15 | 500 to 5000 | 500 to 5000 | Nc1nn2cc(-c3ccncc3)cnc2c1-c1ncccc1OCc1ccccc1 [Compound V-134]
16 | < 500 | < 500 | Nc1nn2cc(-c3cccc(CN4CCNCC4)c3)cnc2c1-c1ccccn1 [Compound V-223]
17 | < 500 | < 500 | CS(=O)(=O)Nc1cccc(-c2cnc3c(-c4ccccn4)c(N)nn3c2)c1 [Compound V-18]
18 | < 500 | < 500 | NCc1ccc(-c2cnc3c(-c4ccccn4)c(N)nn3c2)cc1 [Compound V-195]
19 | 500 to 5000 | 500 to 5000 | COc1ccccc1-c1cnc2c(-c3ccccn3)c(N)nn2c1 [Compound V-14]
20 | < 500 | < 500 | CNCCCN(C)C(=O)c1cccc(-c2cnc3c(-c4ccccn4)c(N)nn3c2)c1 [Compound V-190]

Row | Ki (Itk) [nM] | Ki (c-Met) [nM] | SMILES
21 | < 500 | < 500 | CCCN(CC)c1cc(-c2c(N)nn3cc(-c4ccncc4)cnc23)ncn1 [Compound V-244]
22 | < 500 | < 500 | COCCCN1CCN(C(=O)c2ccc(-c3cnc4c(-c5ccccn5)c(N)nn4c3)nc2)CC1 [Compound V-129]
23 | < 500 | < 500 | CNCCCN(C)Cc1ccc(-c2cnc3c(-c4ccccn4)c(N)nn3c2)cc1 [Compound V-230]
24 | < 500 | < 500 | CN(CCCN)C(=O)c1cccc(-c2cnc3c(-c4ccccn4)c(N)nn3c2)n1 [Compound V-155]
25 | 500 to 5000 | < 500 | Nc1nn2cc(-c3ccc(C(=O)NC4CCCO4)cn3)cnc2c1-c1ccccn1 (stereo not drawn) [Compound V-96]
26 | 500 to 5000 | < 500 | CCN(CC)CCN(C)C(=O)c1cccc(-c2cnc3c(-c4ccccn4)c(N)nn3c2)n1 [Compound V-124]
27 | < 500 | < 500 | CC(C)(O)C#Cc1cnc2c(-c3ccccn3)c(N)nn2c1 [Compound V-237]
28 | < 500 | < 500 | NC1CCN(Cc2cccc(C3=CN4NC(N)C(c5ccccn5)=C4N=C3)c2)CC1 (stereo not drawn) [Compound V-229]
29 | < 500 | < 500 | NC1NN2C=C(c3cccc(CN4CC[C@@H](N)C4)c3)C=NC2=C1c1ccccn1 (stereo partly drawn) [Compound V-226]
30 | 500 to 5000 | < 500 | Nc1nn2cc(-c3cccc(CN4CCOCC4)c3)cnc2c1-c1ccccn1 [Compound V-225]
31 | 500 to 5000 | < 500 | Nc1nn2cc(-c3cccc(C(=O)N4CCC[C@@H]4CN4CCCC4)n3)cnc2c1-c1ccccn1 [Compound V-175]
32 | 500 to 5000 | < 500 | CCN(CCC#N)C(=O)c1cccc(-c2cnc3c(-c4ccccn4)c(N)nn3c2)n1 [Compound V-116]
33 | < 500 | 500 to 5000 | Nc1nn2cc(-c3ccc(CN4CCOCC4)cc3)cnc2c1-c1ccccn1 [Compound V-208]
34 | < 500 | < 500 | Nc1nn2cc(-c3cccc(N4CCNCC4)c3)cnc2c1-c1ccccn1 [Compound V-222]
35 | 500 to 5000 | < 500 | Cc1ccnc(-c2c(N)nn3cc(-c4ccncc4)cnc23)c1 [Compound V-133]
36 | 500 to 5000 | 500 to 5000 | Cc1cccnc1-c1c(N)nn2cc(-c3ccncc3)cnc12 [Compound V-135]
37 | 500 to 5000 | < 500 | CN1CCC(N(C)C(=O)c2cccc(-c3cnc4c(-c5ccccn5)c(N)nn4c3)n2)CC1 [Compound V-101]
38 | < 500 | 500 to 5000 | Cc1cccc(-c2c(N)nn3cc(-c4ccncc4)cnc23)n1 [Compound V-178]
39 | < 500 | < 500 | CNCCCN(C)C(=O)c1ccc(-c2cnc3c(-c4ccccn4)c(N)nn3c2)cc1 [Compound V-191]
40 | 500 to 5000 | < 500 | CN(CCC#N)C(=O)c1cccc(-c2cnc3c(-c4ccccn4)c(N)nn3c2)n1 [Compound V-114]

Row | Ki (Itk) [nM] | Ki (c-Met) [nM] | SMILES
41 | 500 to 5000 | 500 to 5000 | Nc1nn2cc(C(=O)NC3CCCNC3)cnc2c1-c1ccccn1 (stereo not drawn) [Compound V-206]
42 | < 500 | < 500 | Nc1nn2cc(-c3ccncc3)cnc2c1-c1cc(NC2CCCCC2)ncn1 [Compound V-183]
43 | < 500 | < 500 | CN(C)Cc1ccc(-c2cnc3c(-c4ccccn4)c(N)nn3c2)cc1 [Compound V-214]
44 | < 500 | < 500 | Nc1nn2cc(-c3ccc(N4CCC[C@@H]4CN4CCCC4)nc3)cnc2c1-c1ccccn1 [Compound V-176]
45 | 500 to 5000 | < 500 | COC(=O)C1CCCN1C(=O)c1cccc(-c2cnc3c(-c4ccccn4)c(N)nn3c2)n1 (stereo not drawn) [Compound V-139]
46 | < 500 | < 500 | CC(C)CN(C)C(=O)c1ccc(-c2cnc3c(-c4ccccn4)c(N)nn3c2)nc1 [Compound V-97]
47 | < 500 | < 500 | Nc1nn2cc(-c3ccncc3)cnc2c1-c1cc(NCC2CCCCC2)ncn1 [Compound V-184]
48 | < 500 | < 500 | Nc1nn2cc(-c3ccc(CNC4CCNCC4)cc3)cnc2c1-c1ccccn1 [Compound V-232]
49 | 500 to 5000 | < 500 | Nc1nn2cc(-c3cccc(C(=O)N4CCC[C@H]4CN4CCCC4)n3)cnc2c1-c1ccccn1 [Compound V-154]
50 | < 500 | < 500 | CN(C)CCNc1ccc(-c2cnc3c(-c4ccccn4)c(N)nn3c2)cn1 [Compound V-159]
51 | < 500 | < 500 | CN(C)CCN(C)C(=O)c1ccc(-c2cnc3c(-c4ccccn4)c(N)nn3c2)cc1 [Compound V-188]
52 | 500 to 5000 | < 500 | CCN(C)C(=O)c1cccc(-c2cnc3c(-c4ccccn4)c(N)nn3c2)n1 [Compound V-115]
53 | 500 to 5000 | < 500 | CCN(CC)C(=O)c1cccc(-c2cnc3c(-c4ccccn4)c(N)nn3c2)n1 [Compound V-127]
54 | < 500 | < 500 | CC(C)N1CCN(c2ccc(-c3cnc4c(-c5ccccn5)c(N)nn4c3)cn2)CC1 [Compound V-146]
55 | < 500 | < 500 | NC1NN2C=C(c3cccc(CN4CC[C@H](N)C4)c3)C=NC2=C1c1ccccn1 (stereo partly drawn) [Compound V-227]
56 | 500 to 5000 | < 500 | C#CCN(C)C(=O)c1cccc(-c2cnc3c(-c4ccccn4)c(N)nn3c2)n1 [Compound V-106]
57 | < 500 | < 500 | Nc1nn2cc(-c3ccc(N4CCC[C@H]4CN4CCCC4)nc3)cnc2c1-c1ccccn1 [Compound V-152]
58 | < 500 | < 500 | CNc1cc(-c2c(N)nn3cc(-c4ccncc4)cnc23)ncn1 [Compound V-181]
59 | < 500 | < 500 | Nc1nn2cc(-c3ccc(CN4CCNCC4)cc3)cnc2c1-c1ccccn1 [Compound V-217]
60 | 500 to 5000 | < 500 | Nc1nn2cc(-c3cccc(CO)c3)cnc2c1-c1ccccn1 [Compound V-221]
